Data as given in PMC10485887, “PET Evaluation of the Novel F-18 Labeled Reversible Radioligand [^18F]GEH200449 for Detection of Monoamine Oxidase-B in the Non-Human Primate Brain” (ACS Chemical Neuroscience, 2023).
Like-named read-outs stand apart in the source and are kept apart here.

System: MAO-B
Format: in vivo, Macaca fascicularis
Conditions: for 2-TC parameter estimate K1 / 2-TC parameter estimate VT / 2-TC parameter estimate k2 / 2-TC parameter estimate k3 / 2-TC parameter estimate k4 / VT, 2-TC mean / VT, Logan mean: baseline
Description: At start of PET data acquisition, a sterile physiological phosphate buffer solution (pH = 7.4) of [^18F]GEH200449 (injected radioactivity, 107–167 MBq) was injected as a bolus into a sural vein. Emission data were acquired in list mode for 123 min. Arterial blood was sampled as previously described[28] using an automated blood sampling system (ABSS) during the first 3 min of each PET measurement. Subsequently, arterial blood samples (0.7–2.5 mL) were manually drawn at 7, 15, 30, 60, 90, and 120 min after injection of [^18F]GEH200449. After centrifugation, 0.15–1.0 mL of plasma was pipetted and plasma radioactivity was measured in a well counter. In addition, samples were taken directly from the ABSS at 0.5, 1, 1.5, 2, 2.5, and 3 min for cross-calibration with the well counter and for the determination of the plasma-to-blood ratio.
Dynamic images were reconstructed as previously described.[30],[31] Regions of interest (ROIs) for the whole brain and selected regions (caudate nucleus, putamen, thalamus, occipital cortex, prefrontal cortex, and cerebellum) were manually delineated on T1-weighted magnetic resonance images (MRIs) acquired as previously described.[21],[27] PET images were coregistered to the MRIs, and time-activity curves were generated by pooling ROIs for each paired anatomical region and applying the pooled ROIs to the coregistered PET images. Delineation of ROIs and image coregistrations were performed using the software PMOD v. 3.6 (PMOD Technologies, Zurich, Switzerland).
Time curves for regional [^18F]GEH200449 binding at baseline were analyzed by kinetic modeling using 1-TC and 2-TC models,[32] and VT as outcome measures. Akaike information criterion[33] and F statistics were applied to select the preferred model. Regional estimates of VT for [^18F]GEH200449 were also obtained using the Logan linear graphical method[34] with t* fixed at 40 min. The analyses were performed using the kinetic modeling tool in PMOD v. 4.3. Occupancy at [^18F]GEH200449 binding sites was estimated based on regional VT values obtained by the Logan method at baseline and after drug administration according to a graphical procedure described in the literature.[22]

## O=c1ccoc2ccc(OCc3ccc([18F])nc3)cc12 [[^18F]GEH200449]
NHP #1, CAU
  2-TC parameter estimate K1: 0.70 mL min-1 cm-3
  2-TC parameter estimate VT: 14.6 mL cm-3
  2-TC parameter estimate k2: 0.09 min⁻¹
  2-TC parameter estimate k3: 0.034 min⁻¹
  2-TC parameter estimate k4: 0.037 min⁻¹
NHP #1, CER
  2-TC parameter estimate K1: 0.47 mL min-1 cm-3
  2-TC parameter estimate VT: 11.1 mL cm-3
  2-TC parameter estimate k2: 0.07 min⁻¹
  2-TC parameter estimate k3: 0.021 min⁻¹
  2-TC parameter estimate k4: 0.038 min⁻¹
NHP #1, OC
  2-TC parameter estimate K1: 0.49 mL min-1 cm-3
  2-TC parameter estimate VT: 10.8 mL cm-3
  2-TC parameter estimate k2: 0.07 min⁻¹
  2-TC parameter estimate k3: 0.016 min⁻¹
  2-TC parameter estimate k4: 0.024 min⁻¹
NHP #1, PFC
  2-TC parameter estimate K1: 0.57 mL min-1 cm-3
  2-TC parameter estimate VT: 11.0 mL cm-3
  2-TC parameter estimate k2: 0.09 min⁻¹
  2-TC parameter estimate k3: 0.028 min⁻¹
  2-TC parameter estimate k4: 0.037 min⁻¹
NHP #1, PUT
  2-TC parameter estimate K1: 0.71 mL min-1 cm-3
  2-TC parameter estimate VT: 14.1 mL cm-3
  2-TC parameter estimate k2: 0.09 min⁻¹
  2-TC parameter estimate k3: 0.025 min⁻¹
  2-TC parameter estimate k4: 0.029 min⁻¹
NHP #1, THA
  2-TC parameter estimate K1: 0.59 mL min-1 cm-3
  2-TC parameter estimate VT: 15.0 mL cm-3
  2-TC parameter estimate k2: 0.06 min⁻¹
  2-TC parameter estimate k3: 0.008 min⁻¹
  2-TC parameter estimate k4: 0.016 min⁻¹
NHP #1, WB
  2-TC parameter estimate K1: 0.51 mL min-1 cm-3
  2-TC parameter estimate VT: 10.9 mL cm-3
  2-TC parameter estimate k2: 0.09 min⁻¹
  2-TC parameter estimate k3: 0.025 min⁻¹
  2-TC parameter estimate k4: 0.031 min⁻¹
NHP #3, CAU
  2-TC parameter estimate K1: 0.65 mL min-1 cm-3
  2-TC parameter estimate VT: 19.2 mL cm-3
  2-TC parameter estimate k2: 0.04 min⁻¹
  2-TC parameter estimate k3: 0.006 min⁻¹
  2-TC parameter estimate k4: 0.029 min⁻¹
NHP #3, CER
  2-TC parameter estimate K1: 0.44 mL min-1 cm-3
  2-TC parameter estimate VT: 13.9 mL cm-3
  2-TC parameter estimate k2: 0.04 min⁻¹
  2-TC parameter estimate k3: 0.005 min⁻¹
  2-TC parameter estimate k4: 0.016 min⁻¹
NHP #3, OC
  2-TC parameter estimate K1: 0.38 mL min-1 cm-3
  2-TC parameter estimate VT: 11.2 mL cm-3
  2-TC parameter estimate k2: 0.04 min⁻¹
  2-TC parameter estimate k3: 0.003 min⁻¹
  2-TC parameter estimate k4: 0.012 min⁻¹
NHP #3, PFC
  2-TC parameter estimate K1: 0.49 mL min-1 cm-3
  2-TC parameter estimate VT: 13.5 mL cm-3
  2-TC parameter estimate k2: 0.05 min⁻¹
  2-TC parameter estimate k3: 0.006 min⁻¹
  2-TC parameter estimate k4: 0.017 min⁻¹
NHP #3, PUT
  2-TC parameter estimate K1: 0.70 mL min-1 cm-3
  2-TC parameter estimate VT: 16.7 mL cm-3
  2-TC parameter estimate k2: 0.05 min⁻¹
  2-TC parameter estimate k3: 0.007 min⁻¹
  2-TC parameter estimate k4: 0.029 min⁻¹
NHP #3, THA
  2-TC parameter estimate K1: 0.58 mL min-1 cm-3
  2-TC parameter estimate VT: 18.5 mL cm-3
  2-TC parameter estimate k2: 0.04 min⁻¹
  2-TC parameter estimate k3: 0.007 min⁻¹
  2-TC parameter estimate k4: 0.023 min⁻¹
NHP #3, WB
  2-TC parameter estimate K1: 0.48 mL min-1 cm-3
  2-TC parameter estimate VT: 12.6 mL cm-3
  2-TC parameter estimate k2: 0.05 min⁻¹
  2-TC parameter estimate k3: 0.010 min⁻¹
  2-TC parameter estimate k4: 0.029 min⁻¹
NHP #4, CAU
  2-TC parameter estimate K1: 0.50 mL min-1 cm-3
  2-TC parameter estimate VT: 19.9 mL cm-3
  2-TC parameter estimate k2: 0.05 min⁻¹
  2-TC parameter estimate k3: 1.087 min⁻¹
  2-TC parameter estimate k4: 1.229 min⁻¹
NHP #4, CER
  2-TC parameter estimate K1: 0.32 mL min-1 cm-3
  2-TC parameter estimate k2: 0.03 min⁻¹
  2-TC parameter estimate k3: 0.001 min⁻¹
  2-TC parameter estimate k4: 0.000 min⁻¹
NHP #4, OC
  2-TC parameter estimate K1: 0.31 mL min-1 cm-3
  2-TC parameter estimate k2: 0.03 min⁻¹
  2-TC parameter estimate k3: 0.001 min⁻¹
  2-TC parameter estimate k4: 0.000 min⁻¹
NHP #4, PFC
  2-TC parameter estimate K1: 0.37 mL min-1 cm-3
  2-TC parameter estimate VT: 13.9 mL cm-3
  2-TC parameter estimate k2: 0.03 min⁻¹
  2-TC parameter estimate k3: 0.002 min⁻¹
  2-TC parameter estimate k4: 0.013 min⁻¹
NHP #4, PUT
  2-TC parameter estimate K1: 0.57 mL min-1 cm-3
  2-TC parameter estimate VT: 17.2 mL cm-3
  2-TC parameter estimate k2: 0.04 min⁻¹
  2-TC parameter estimate k3: 0.006 min⁻¹
  2-TC parameter estimate k4: 0.034 min⁻¹
NHP #4, THA
  2-TC parameter estimate K1: 0.53 mL min-1 cm-3
  2-TC parameter estimate VT: 18.1 mL cm-3
  2-TC parameter estimate k2: 1.24 min⁻¹
  2-TC parameter estimate k3: 4.043 min⁻¹
  2-TC parameter estimate k4: 0.098 min⁻¹
NHP #4, WB
  2-TC parameter estimate K1: 0.34 mL min-1 cm-3
  2-TC parameter estimate VT: 13.1 mL cm-3
  2-TC parameter estimate k2: 0.03 min⁻¹
  2-TC parameter estimate k3: 0.003 min⁻¹
  2-TC parameter estimate k4: 0.016 min⁻¹
NHP #5, CAU
  2-TC parameter estimate K1: 0.93 mL min-1 cm-3
  2-TC parameter estimate VT: 34.1 mL cm-3
  2-TC parameter estimate k2: 0.05 min⁻¹
  2-TC parameter estimate k3: 0.004 min⁻¹
  2-TC parameter estimate k4: 0.004 min⁻¹
NHP #5, CER
  2-TC parameter estimate K1: 0.51 mL min-1 cm-3
  2-TC parameter estimate VT: 16.0 mL cm-3
  2-TC parameter estimate k2: 0.05 min⁻¹
  2-TC parameter estimate k3: 0.006 min⁻¹
  2-TC parameter estimate k4: 0.011 min⁻¹
NHP #5, OC
  2-TC parameter estimate K1: 0.37 mL min-1 cm-3
  2-TC parameter estimate k2: 0.04 min⁻¹
  2-TC parameter estimate k3: 0.002 min⁻¹
  2-TC parameter estimate k4: 0.000 min⁻¹
NHP #5, PFC
  2-TC parameter estimate K1: 0.61 mL min-1 cm-3
  2-TC parameter estimate VT: 20.4 mL cm-3
  2-TC parameter estimate k2: 0.05 min⁻¹
  2-TC parameter estimate k3: 0.004 min⁻¹
  2-TC parameter estimate k4: 0.006 min⁻¹
NHP #5, PUT
  2-TC parameter estimate K1: 0.86 mL min-1 cm-3
  2-TC parameter estimate VT: 21.1 mL cm-3
  2-TC parameter estimate k2: 0.06 min⁻¹
  2-TC parameter estimate k3: 0.007 min⁻¹
  2-TC parameter estimate k4: 0.012 min⁻¹
NHP #5, THA
  2-TC parameter estimate K1: 0.64 mL min-1 cm-3
  2-TC parameter estimate VT: 27.7 mL cm-3
  2-TC parameter estimate k2: 0.04 min⁻¹
  2-TC parameter estimate k3: 0.004 min⁻¹
  2-TC parameter estimate k4: 0.005 min⁻¹
NHP #5, WB
  2-TC parameter estimate K1: 0.50 mL min-1 cm-3
  2-TC parameter estimate VT: 17.3 mL cm-3
  2-TC parameter estimate k2: 0.05 min⁻¹
  2-TC parameter estimate k3: 0.005 min⁻¹
  2-TC parameter estimate k4: 0.008 min⁻¹
Baseline PET images and time curves
  pattern of regional radioactivity (binding): high binding in the striatum and thalamus, whereas the binding was lower in the cortex and cerebellum
Caudate nucleus, n = 4
  VT, 2-TC mean: 22.0 mL cm^–3
  VT, Logan mean: 18.9 mL cm^–3
cerebellum, n = 3
  VT, 2-TC mean: 13.6^** mL cm^–3
cerebellum, n = 4
  VT, Logan mean: 12.6 mL cm^–3
Occipital cortex, n = 2
  VT, 2-TC mean: 11.0^* mL cm^–3
Occipital cortex, n = 4
  VT, Logan mean: 11.0 mL cm^–3
Prefrontal cortex, n = 4
  VT, 2-TC mean: 14.7 mL cm^–3
  VT, Logan mean: 13.1 mL cm^–3
putamen, n = 4
  VT, 2-TC mean: 17.3 mL cm^–3
  VT, Logan mean: 16.5 mL cm^–3
thalamus, n = 4
  VT, 2-TC mean: 19.8 mL cm^–3
  VT, Logan mean: 17.3 mL cm^–3
Whole brain, n = 4
  VT, 2-TC mean: 13.5 mL cm^–3
  VT, Logan mean: 12.4 mL cm^–3
